# Experimental data as given in patent publication US4417052A, “Phenyl-lower-alkyl piperidines and pyrrolidines” (Sterling Drug Inc., priority 1981, dated 1983).
# Where a name gives a salt, the structure may show the parent alone.
# Legend:
# [1] = tested on: adjuvant-induced arthritis; experiment: inhibition of adjuvant-induced arthritis test (A.A.); format: in vivo; settings: oral; for A.A. percent inhibition (in brackets): corn oil vehicle; for A.A. percent inhibition (in parentheses): second experiment; for inhibition in vivo at 80 µmol/kg: dose 0.08 millimoles/kg
# Experimental: (§1) Anti-inflammatory activity was determined using (1) the inhibition of carrageenin-induced foot edema test essentially described by Winter et al., Proc. Soc. Exp. Biol. and Med. 111, 554 (1962) as modified by Van Arman et al., J. Pharmacol. Exptl. Therap. 150, 328 (1965) and (2) a modification of the inhibition of adjuvant-induced arthritis test described by Pierson, J. Chronic Diseases 16, 863 (1963) and Glenn et al., Am. J. Vet. Res. 26, 1180 (1965).
# (§2) The N-{2-,3- and 4-[R1 -(phenyl)-C(=X)]-phenyl-lower-alkyl}amines of formulas I, Ia and Ib of the invention have been tested in the carrageenin edema (CE) and adjuvant arthritis (AA) tests and found to have anti-inflammatory activity. For comparative purposes, data obtained in the carrageenin edema test on the reference compound (designated "Ref."), 4[(3-benzoylphenyl)methyl]morpholine, disclosed in French Patent 1,549,342, are also given. All data were obtained on oral administration.
# [2] = tested on: carrageenin-induced foot edema; experiment: inhibition of carrageenin-induced foot edema test (C.E.); format: in vivo; settings: oral; for inhibition in vivo at 4 µmol/kg: dose 0.004 millimoles/kg; for inhibition in vivo at 20 µmol/kg: dose 0.02 millimoles/kg; for C.E. percent inhibition (Table B): formula V amides
# Experimental: as §1, §2
# [3] = read-out: A.A. percent inhibition
# [4] = read-out: C.E. percent inhibition
# [5] = dose 0.324 millimoles/kg, (a) data obtained after 17 days on test and 9 medications
# [6] = dose 0.08 millimoles/kg, read-out: C.E. percent inhibition
# [7] = dose 0.324 millimoles/kg, read-out: C.E. percent inhibition
Structure (SMILES),"inhibition in vivo at 4 µmol/kg [2, 4] [%]","inhibition in vivo at 20 µmol/kg [2, 4] [%]","inhibition in vivo at 80 µmol/kg [2, 6] [%]","inhibition in vivo at 324 µmol/kg [2, 7] [%]",further results
"CC(CN1CCCCC1CC1CCCCC1)c1cccc(C(=O)c2ccccc2)c1.Cl (single isomer, unassigned) [14(a), 2-cyclohexylmethyl-1-[2-(3-benzoylphenyl)propyl]piperidine hydrochloride]",–,–,–,–,"A.A. percent inhibition (in brackets) ([1]; dose 0.0013 millimoles/kg): 0%; A.A. percent inhibition (in parentheses) ([1]; dose 0.0013 millimoles/kg): 28%; inhibition in vivo at 1.3 µmol/kg ([1]; dose 0.0013 millimoles/kg, read-out: A.A. percent inhibition): 16%; A.A. percent inhibition (in brackets) ([1]; dose 0.005 millimoles/kg): 39%; A.A. percent inhibition (in parentheses) ([1]; dose 0.005 millimoles/kg): 46%; inhibition in vivo at 5 µmol/kg ([1]; dose 0.005 millimoles/kg, read-out: A.A. percent inhibition): 46%; A.A. percent inhibition (in brackets) ([1]; dose 0.02 millimoles/kg): 65%; A.A. percent inhibition (in parentheses) ([1]; dose 0.02 millimoles/kg): 87%; inhibition in vivo at 20 µmol/kg ([1]; dose 0.02 millimoles/kg, read-out: A.A. percent inhibition): 79%"
"CC(CN1CCC2(CC1)OCCO2)c1cccc(C(=O)c2ccccc2)c1 (centres unmarked) [7G (base), 8-[2-(3-Benzoylphenyl)propyl]-1,4-dioxa-8-azaspiro[4,5]decane]",33,42,–,–,"inhibition in vivo at 80 µmol/kg [1, 3]: 76%"
"CC(CN1CCOCC1)c1cccc(C(=O)c2ccccc2)c1 (centres unmarked) [7H (base), 4-[2-(3-Benzoylphenyl)propyl]morpholine]",29,44,–,–,"inhibition in vivo at 80 µmol/kg [1, 3]: 81%"
"CC(C(=O)N1CCCCC1CC1CCCCC1)c1cccc(C(=O)c2ccccc2)c1 (stereo not drawn) [Example 1 (Table B), 2-cyclohexylmethyl-1-[α-(3-benzoylphenyl)propionyl]piperidine]",–,–,–,–,"A.A. percent inhibition (Table B, footnote a) [1, 5]: 67%; C.E. percent inhibition (Table B) ([2]; dose 0.08 millimoles/kg): 21%; C.E. percent inhibition (Table B, footnote a) [2, 5]: 36%"
"OC(c1ccccc1)c1cccc(CCN2CCCCC2CC2CCCCC2)c1 (stereo not drawn) [Example 1A, 2-Cyclohexylmethyl-1-{2-[3-(α-hydroxybenzyl)phenyl]ethyl}piperidine]",0,0,51,62,–
"O=C(c1ccccc1)c1cccc(CCN2CCOCC2)c1 [Example 1C, 4-[2-(3-Benzoylphenyl)ethyl]morpholine hydrochloride monohydrate]",–,–,40,77,–
"CN(C)CCCNCCc1cccc(C(=O)c2ccccc2)c1 [Example 1D, N-[2-(3-Benzoylphenyl)ethyl]-N-(3-dimethylaminopropyl)amine dihydrochloride hemi-hydrate]",–,–,36,65,–
"CC(C(=O)N1CCN(C2CCCC2)CC1)c1cccc(C(=O)c2ccccc2)c1.Cl (stereo not drawn) [Example 1J, 4-Cyclopentyl-1-[α-(3-benzoylphenyl)propionyl]piperazine hydrochloride]",–,–,–,–,C.E. percent inhibition (Table B) ([2]; dose 0.08 millimoles/kg): 18%; C.E. percent inhibition (Table B) ([2]; dose 0.324 millimoles/kg): 72%
"CC(CN1CCCCC1CC1CCCCC1)c1cccc(C(O)c2cccc(Cl)c2)c1 (stereo not drawn) [Example 3A, 2-Cyclohexylmethyl-1-{2-[3-(α-hydroxy-3-chlorobenzyl)phenyl]propyl}piperidine]",0,0,34,75,–
"CC(CN1CCCCC1CCCC1CCCCC1)c1cccc(C(O)c2ccccc2)c1 (stereo not drawn) [Example 3E, 2-(3-Cyclohexylpropyl)-1-{2-[3-(α-hydroxybenzyl)phenyl]propyl}piperidine]",14,34,–,–,–
"Cc1ccc(C(O)c2cccc(C(C)CN3CCCCC3CC3CCCCC3)c2)cc1 (stereo not drawn) [Example 4, 2-cyclohexylmethyl-1-{2-[3-(α-hydroxy-4-methylbenzyl)phenyl]propyl}piperidine]",0,1,18,72,–
"CC(CN1CCCCC1CC1CCCCC1)c1cccc(C(O)c2c(Cl)cccc2Cl)c1 (stereo not drawn) [Example 5A, 2-Cyclohexylmethyl-1-{2-[3-(α-hydroxy-2,6-dichlorobenzyl)phenyl]propyl}piperidine]",0,0,58,68,–
"CC(CN1CCCCC1CC1CCCCC1)c1cccc(C(C)(O)c2ccccc2)c1 (stereo not drawn) [Example 6, 2-cyclohexylmethyl-1-{2-[3-(α-hydroxy-α-methylbenzyl)phenyl]propyl}piperidine]",14,5,28,55,–
"Cc1ccc(C(=O)c2cccc(C(C)CN3CCCCC3CC3CCCCC3)c2)cc1 (centres unmarked) [Example 7C, 2-Cyclohexylmethyl-1-{2-[3-(4-methylbenzoyl)phenyl]propyl}piperidine]",0,10,58,75,–
"CC1CN(CC(C)c2cccc(C(=O)c3ccccc3)c2)CC(C)O1 (centres unmarked) [Example 7J, 2,6-Dimethyl-4-[2-(3-benzoylphenyl)propyl]morpholine cyclohexanesulfamate]",–,–,62,66,–
"Cc1ccccc1C(=O)c1cccc(C(C)CN2CCCCC2CC2CCCCC2)c1 (centres unmarked) [Example 8, 2-cyclohexylmethyl-1-{2-[3-(2-methylbenzoyl)phenyl]propyl}piperidine]",2,21,33,68,–
"Cc1cccc(C(=O)c2cccc(C(C)CN3CCCCC3CC3CCCCC3)c2)c1 (centres unmarked) [Example 9, 2-cyclohexylmethyl-1-{2-[3-(3-methylbenzoyl)phenyl]propyl}piperidine]",0,0,21,47,–
"CC(CN1CCCCC1CC1CCCCC1)c1cccc(C(C)c2ccccc2)c1 (stereo not drawn) [Example 11, 2-cyclohexylmethyl-1-{2-[3-(α-methylbenzyl)phenyl]propyl}piperidine]",0,15,29,64,–
"ON=C(c1ccccc1)c1cccc(CCN2CCOCC2)c1 [Example 15A, 4-[2-(3-Benzoylphenyl)ethyl]morpholine oxime]",–,–,27,29,–
"NC(c1ccccc1)c1cccc(CCN2CCOCC2)c1 (stereo not drawn) [Example 16A, 4-{2-[3-(α-Aminobenzyl)phenyl]ethyl}morpholine dihydrochloride]",–,–,27,39,–
"CC(CN1CCOCC1)c1cccc(C(N)c2ccccc2)c1 (stereo not drawn) [Example 16C, 4-{2-[3-(α-Aminobenzyl)phenyl]propyl}morpholine dihydrochloride]",–,–,49,84,–
"C=C(c1ccccc1)c1cccc(C(C)CN2CCCCC2CC2CCCCC2)c1 (centres unmarked) [Example 17, 2-cyclohexylmethyl-1-{2-[3-(1-phenyl-1-vinyl)phenyl]propyl}piperidine]",9,16,47,67,–
"O=C(c1ccccc1)c1cccc(CCN2CCCCC2CC2CCCCC2)c1 (centres unmarked) [Example 20A, 2-Cyclohexylmethyl-1-[2-(3-benzoylphenyl)ethyl]piperidine]",–,25,46,70,"inhibition in vivo at 40 µmol/kg ([2]; dose 0.04 millimoles/kg, read-out: C.E. percent inhibition): 9%"
"CC(CN1CCCCC1CC1CCCCC1)c1cccc(C(=O)c2cccc(Cl)c2)c1 (centres unmarked) [Example 20B, 2-Cyclohexylmethyl-1-{2-[3-(3-chlorobenzoyl)phenyl]propyl}piperidine]",14,0,22,65,–
"CC(CN1CCCCC1CC1CCCCC1)c1cccc(C(=O)c2ccc(Cl)c(Cl)c2)c1 (centres unmarked) [Example 20C, 2-Cyclohexylmethyl-1-{2-[3-(3,4-dichlorobenzoyl)phenyl]propyl}piperidine]",17,15,19,51,–
"CC(c1cccc(C(=O)c2ccccc2)c1)N1CCOCC1 (centres unmarked) [Example 21, 4-[1-(3-benzoylphenyl)ethyl]morpholine]",–,–,32,46,–
"CN(C)C(c1ccccc1)c1cccc(CCN2CCOCC2)c1 (stereo not drawn) [Example 22, 4-{2-[3-(α-dimethylaminobenzyl)phenyl]ethyl}morpholine]",–,–,29,63,–
"O=C(c1ccccc1)c1cccc(CN2CCOCC2)c1 [Ref., 4[(3-benzoylphenyl)methyl]morpholine, reference compound]",–,–,0,23,–
